Test results from the kinase profiling compilation of Christmann-Franck et al. (2016).
Values joined by “and” are separate entries in the source; they are usually repeats but may differ in a detail not shown here. Equal values may be shown once.

Tests used:
Test in all cases: radiometric filter-binding kinase assay, Kinase HotSpot
Settings in all cases: compound 0.5 µM; ATP 10 µM
EGFR (human) = EGFR (human) (UniProt P00533)
[1] = biological target: TYK2 JH1 catalytic (human) (UniProt P29597)
CAMK2B (human) = CAMK2B (human) (UniProt Q13554)
TGFBR2 (human) = TGFBR2 (human) (UniProt P37173)
RPS6KB1 (human) = RPS6KB1 (human) (UniProt P23443)
KDR (human) = KDR (human) (UniProt P35968)
EPHA6 (human) = EPHA6 (human) (UniProt Q9UF33)
CHEK1 (human) = CHEK1 (human) (UniProt O14757)
Sequence of CHEK1 (human) (O14757 whole entry, looked up): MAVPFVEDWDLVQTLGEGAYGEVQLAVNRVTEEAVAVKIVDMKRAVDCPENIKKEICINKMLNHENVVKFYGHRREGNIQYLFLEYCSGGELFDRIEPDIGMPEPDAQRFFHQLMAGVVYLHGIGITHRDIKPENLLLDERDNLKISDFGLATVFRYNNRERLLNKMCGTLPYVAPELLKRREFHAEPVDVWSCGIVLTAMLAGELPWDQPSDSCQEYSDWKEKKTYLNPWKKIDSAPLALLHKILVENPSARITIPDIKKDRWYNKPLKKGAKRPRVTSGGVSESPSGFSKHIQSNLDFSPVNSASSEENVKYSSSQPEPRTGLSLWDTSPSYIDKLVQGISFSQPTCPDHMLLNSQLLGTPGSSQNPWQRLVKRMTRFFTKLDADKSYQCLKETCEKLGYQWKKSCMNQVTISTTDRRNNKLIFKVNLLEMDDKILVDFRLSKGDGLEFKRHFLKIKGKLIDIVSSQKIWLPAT

DYRK3 (human) = DYRK3 (human) (UniProt O43781)
Sequence of DYRK3 (human) (O43781 whole entry, looked up): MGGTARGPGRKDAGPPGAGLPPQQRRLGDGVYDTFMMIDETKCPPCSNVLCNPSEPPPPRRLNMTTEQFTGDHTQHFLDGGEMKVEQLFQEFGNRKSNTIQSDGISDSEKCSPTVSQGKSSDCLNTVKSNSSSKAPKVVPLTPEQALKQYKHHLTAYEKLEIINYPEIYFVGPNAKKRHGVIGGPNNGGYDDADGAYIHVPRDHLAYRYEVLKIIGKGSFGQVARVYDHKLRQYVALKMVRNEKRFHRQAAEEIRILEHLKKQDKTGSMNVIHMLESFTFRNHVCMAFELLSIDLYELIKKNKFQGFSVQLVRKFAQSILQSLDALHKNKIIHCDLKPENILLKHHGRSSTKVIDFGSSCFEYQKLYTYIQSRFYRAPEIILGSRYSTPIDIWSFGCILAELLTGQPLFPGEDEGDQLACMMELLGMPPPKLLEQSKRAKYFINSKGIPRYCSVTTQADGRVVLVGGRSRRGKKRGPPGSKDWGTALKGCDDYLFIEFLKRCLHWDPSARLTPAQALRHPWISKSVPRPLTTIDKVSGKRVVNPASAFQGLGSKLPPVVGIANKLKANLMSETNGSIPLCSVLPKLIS

STK16 (human) = STK16 (human) (UniProt O75716)
Sequence of STK16 (human) (O75716 whole entry, looked up): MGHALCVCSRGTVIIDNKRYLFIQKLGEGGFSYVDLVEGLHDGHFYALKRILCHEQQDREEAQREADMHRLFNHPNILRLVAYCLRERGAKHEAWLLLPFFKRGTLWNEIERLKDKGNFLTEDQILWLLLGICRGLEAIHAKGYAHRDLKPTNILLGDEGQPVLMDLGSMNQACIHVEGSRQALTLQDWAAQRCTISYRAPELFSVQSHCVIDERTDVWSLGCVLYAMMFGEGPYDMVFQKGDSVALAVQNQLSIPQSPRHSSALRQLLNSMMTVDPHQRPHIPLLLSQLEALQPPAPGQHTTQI

PTK2 (human) = PTK2 (human) (UniProt Q05397)
TLK2 (human) = TLK2 (human) (UniProt Q86UE8)
LCK (human) = LCK (human) (UniProt P06239)
MARK1 (human) = MARK1 (human) (UniProt Q9P0L2)
KIT (human) = KIT (human) (UniProt P10721)
CDK3 CCNE1 (human) = CDK3 CCNE1 (human) (UniProt Q00526+P24864)
PRKG1 (human) = PRKG1 (human) (UniProt Q13976)
PRKCA (human) = PRKCA (human) (UniProt P17252)
RET (human) = RET (human) (UniProt P07949)
MKNK2 (human) = MKNK2 (human) (UniProt Q9HBH9)
BRAF (human) = BRAF (human) (UniProt P15056)
Sequence of BRAF (human) (P15056 whole entry, looked up): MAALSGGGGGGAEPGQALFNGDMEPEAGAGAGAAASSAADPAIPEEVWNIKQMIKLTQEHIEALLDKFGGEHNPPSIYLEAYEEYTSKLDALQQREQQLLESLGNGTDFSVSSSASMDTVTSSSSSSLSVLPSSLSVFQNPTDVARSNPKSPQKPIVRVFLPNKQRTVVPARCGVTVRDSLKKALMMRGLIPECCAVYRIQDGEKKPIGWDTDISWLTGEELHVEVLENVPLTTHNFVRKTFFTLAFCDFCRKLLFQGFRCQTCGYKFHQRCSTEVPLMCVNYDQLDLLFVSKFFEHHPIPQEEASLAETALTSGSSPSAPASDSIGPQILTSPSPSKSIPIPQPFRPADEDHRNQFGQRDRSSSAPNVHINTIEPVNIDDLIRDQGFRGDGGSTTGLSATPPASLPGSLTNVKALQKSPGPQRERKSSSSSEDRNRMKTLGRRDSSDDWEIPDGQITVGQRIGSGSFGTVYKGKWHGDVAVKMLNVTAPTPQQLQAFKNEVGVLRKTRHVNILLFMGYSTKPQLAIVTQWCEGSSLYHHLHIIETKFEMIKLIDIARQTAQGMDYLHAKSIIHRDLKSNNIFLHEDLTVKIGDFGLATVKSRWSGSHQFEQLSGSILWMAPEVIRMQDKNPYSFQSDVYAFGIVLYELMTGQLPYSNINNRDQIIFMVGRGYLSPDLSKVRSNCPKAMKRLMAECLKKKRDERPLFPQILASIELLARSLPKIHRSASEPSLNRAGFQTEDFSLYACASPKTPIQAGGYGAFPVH

[2] = tested on: SGK1 (human), O00141 [S422D]
MAPK14 (human) = MAPK14 (human) (UniProt Q16539)
[3] = biological target: JAK1 JH1 catalytic (human) (UniProt P23458)
Sequence of JAK1 JH1 catalytic (human) (P23458 whole entry, looked up): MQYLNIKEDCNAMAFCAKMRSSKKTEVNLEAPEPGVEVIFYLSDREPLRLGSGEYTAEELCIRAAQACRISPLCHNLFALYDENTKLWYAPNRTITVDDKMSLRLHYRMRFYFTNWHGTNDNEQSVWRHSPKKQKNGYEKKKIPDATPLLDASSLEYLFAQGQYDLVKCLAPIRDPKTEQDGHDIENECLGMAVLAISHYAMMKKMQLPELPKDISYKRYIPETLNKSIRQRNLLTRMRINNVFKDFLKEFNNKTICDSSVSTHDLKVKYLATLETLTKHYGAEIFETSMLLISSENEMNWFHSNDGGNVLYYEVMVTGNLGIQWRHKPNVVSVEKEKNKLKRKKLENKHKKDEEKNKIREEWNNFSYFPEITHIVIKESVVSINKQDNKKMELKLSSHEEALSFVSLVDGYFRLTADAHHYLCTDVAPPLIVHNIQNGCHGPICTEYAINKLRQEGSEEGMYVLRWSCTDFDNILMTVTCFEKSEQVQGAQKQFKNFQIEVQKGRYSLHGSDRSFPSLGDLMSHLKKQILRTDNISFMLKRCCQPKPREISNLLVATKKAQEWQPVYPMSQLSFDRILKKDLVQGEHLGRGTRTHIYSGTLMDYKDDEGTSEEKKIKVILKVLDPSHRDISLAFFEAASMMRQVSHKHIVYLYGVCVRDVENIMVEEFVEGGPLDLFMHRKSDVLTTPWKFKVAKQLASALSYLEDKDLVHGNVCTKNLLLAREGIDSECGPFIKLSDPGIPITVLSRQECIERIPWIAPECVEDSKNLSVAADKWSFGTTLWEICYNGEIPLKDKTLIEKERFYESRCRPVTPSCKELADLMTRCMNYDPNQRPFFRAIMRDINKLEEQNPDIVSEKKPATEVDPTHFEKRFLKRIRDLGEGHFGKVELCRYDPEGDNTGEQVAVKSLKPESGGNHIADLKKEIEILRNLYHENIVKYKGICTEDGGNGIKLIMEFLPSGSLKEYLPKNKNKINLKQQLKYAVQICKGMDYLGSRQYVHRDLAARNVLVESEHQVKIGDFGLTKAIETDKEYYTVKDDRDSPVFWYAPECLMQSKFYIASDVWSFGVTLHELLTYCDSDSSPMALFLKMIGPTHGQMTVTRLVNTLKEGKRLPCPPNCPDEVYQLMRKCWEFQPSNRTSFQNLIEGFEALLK

MAPKAPK5 (human) = MAPKAPK5 (human) (UniProt Q8IW41)
EPHB2 (human) = EPHB2 (human) (UniProt P29323)
DYRK1A (human) = DYRK1A (human) (UniProt Q13627)
PRKACG (human) = PRKACG (human) (UniProt P22612)
PAK6 (human) = PAK6 (human) (UniProt Q9NQU5)
CSNK2A1 (human) = CSNK2A1 (human) (UniProt P68400)
YES1 (human) = YES1 (human) (UniProt P07947)
PHKG2 (human) = PHKG2 (human) (UniProt P15735)
TAOK2 (human) = TAOK2 (human) (UniProt Q9UL54)
CLK4 (human) = CLK4 (human) (UniProt Q9HAZ1)
PRKD3 (human) = PRKD3 (human) (UniProt O94806)
PDPK1 (human) = PDPK1 (human) (UniProt O15530)
Sequence of PDPK1 (human) (O15530 whole entry, looked up): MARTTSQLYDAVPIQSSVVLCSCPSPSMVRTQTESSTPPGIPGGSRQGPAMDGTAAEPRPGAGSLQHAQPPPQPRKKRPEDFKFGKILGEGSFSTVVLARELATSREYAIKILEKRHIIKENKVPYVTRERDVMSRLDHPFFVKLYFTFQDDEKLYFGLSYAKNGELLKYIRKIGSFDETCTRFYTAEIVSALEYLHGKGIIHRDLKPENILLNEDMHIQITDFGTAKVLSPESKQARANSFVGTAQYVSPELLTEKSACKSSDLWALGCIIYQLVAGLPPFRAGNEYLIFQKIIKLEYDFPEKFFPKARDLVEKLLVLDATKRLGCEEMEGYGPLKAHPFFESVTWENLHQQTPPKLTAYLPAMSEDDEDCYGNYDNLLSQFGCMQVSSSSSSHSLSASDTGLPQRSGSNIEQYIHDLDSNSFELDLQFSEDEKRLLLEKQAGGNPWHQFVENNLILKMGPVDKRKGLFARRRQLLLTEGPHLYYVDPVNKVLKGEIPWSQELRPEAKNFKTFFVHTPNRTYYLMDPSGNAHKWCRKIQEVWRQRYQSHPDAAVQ

ULK3 (human) = ULK3 (human) (UniProt Q6PHR2)
CSNK1A1 (human) = CSNK1A1 (human) (UniProt P48729)
MYO3B (human) = MYO3B (human) (UniProt Q8WXR4)
STK38 (human) = STK38 (human) (UniProt Q15208)
RPS6KB2 (human) = RPS6KB2 (human) (UniProt Q9UBS0)

Sequence of EGFR (human) (P00533 whole entry, looked up): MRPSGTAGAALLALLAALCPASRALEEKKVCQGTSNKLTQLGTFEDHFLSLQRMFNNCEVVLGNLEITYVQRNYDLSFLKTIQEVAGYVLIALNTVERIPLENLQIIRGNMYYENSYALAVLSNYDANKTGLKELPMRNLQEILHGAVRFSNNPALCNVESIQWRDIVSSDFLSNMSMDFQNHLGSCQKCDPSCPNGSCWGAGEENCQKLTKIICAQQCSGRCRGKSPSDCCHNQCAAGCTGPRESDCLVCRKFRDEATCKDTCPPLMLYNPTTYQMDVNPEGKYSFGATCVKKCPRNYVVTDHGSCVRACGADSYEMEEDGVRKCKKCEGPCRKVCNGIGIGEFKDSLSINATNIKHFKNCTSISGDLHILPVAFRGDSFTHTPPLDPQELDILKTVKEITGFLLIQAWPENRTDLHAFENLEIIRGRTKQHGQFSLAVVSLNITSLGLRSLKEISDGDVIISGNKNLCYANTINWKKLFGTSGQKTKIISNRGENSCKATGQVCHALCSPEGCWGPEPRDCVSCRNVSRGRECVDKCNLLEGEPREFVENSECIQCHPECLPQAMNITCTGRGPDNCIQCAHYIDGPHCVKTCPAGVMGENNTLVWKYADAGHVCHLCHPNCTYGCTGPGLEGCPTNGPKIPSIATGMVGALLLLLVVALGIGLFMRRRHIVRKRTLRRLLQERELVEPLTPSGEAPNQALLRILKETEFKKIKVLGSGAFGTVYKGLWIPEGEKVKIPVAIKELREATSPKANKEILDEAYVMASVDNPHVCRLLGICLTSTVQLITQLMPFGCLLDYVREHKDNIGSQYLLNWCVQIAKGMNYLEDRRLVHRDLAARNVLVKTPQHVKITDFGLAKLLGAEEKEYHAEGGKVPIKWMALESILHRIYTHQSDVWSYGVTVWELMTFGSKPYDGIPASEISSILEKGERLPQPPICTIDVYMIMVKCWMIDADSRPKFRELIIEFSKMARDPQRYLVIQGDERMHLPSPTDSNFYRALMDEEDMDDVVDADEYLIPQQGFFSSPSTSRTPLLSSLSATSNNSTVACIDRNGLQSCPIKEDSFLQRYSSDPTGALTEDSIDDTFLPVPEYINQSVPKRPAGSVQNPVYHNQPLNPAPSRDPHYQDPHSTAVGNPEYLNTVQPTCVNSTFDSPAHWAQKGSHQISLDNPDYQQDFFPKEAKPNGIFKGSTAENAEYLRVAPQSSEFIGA

## COc1cccc(-c2cc(=O)c3ccccc3o2)c1N
EGFR (human)
  residual activity: 81.2%
[1]
  residual activity: 92.7%
CAMK2B (human)
  residual activity: 103%
TGFBR2 (human)
  residual activity: 115%
RPS6KB1 (human)
  residual activity: 98%
KDR (human)
  residual activity: 81.3%
EPHA6 (human)
  residual activity: 81.2%
CHEK1 (human)
  residual activity: 103%
DYRK3 (human)
  residual activity: 90.3%
STK16 (human)
  residual activity: 95.4%
PTK2 (human)
  residual activity: 98.2%
TLK2 (human)
  residual activity: 84.8%
LCK (human)
  residual activity: 99%
MARK1 (human)
  residual activity: 96.9%
KIT (human)
  residual activity: 92.2%
CDK3 CCNE1 (human)
  residual activity: 109%
PRKG1 (human)
  residual activity: 108% and 111%
PRKCA (human)
  residual activity: 102%
RET (human)
  residual activity: 107%
MKNK2 (human)
  residual activity: 108%
BRAF (human)
  residual activity: 93.6%
[2]
  residual activity: 102%
MAPK14 (human)
  residual activity: 76.2%
[3]
  residual activity: 98.9%
MAPKAPK5 (human)
  residual activity: 122%
EPHB2 (human)
  residual activity: 88%
DYRK1A (human)
  residual activity: 94%
PRKACG (human)
  residual activity: 96%
PAK6 (human)
  residual activity: 95.5%
CSNK2A1 (human)
  residual activity: 94.9%
YES1 (human)
  residual activity: 93.5%
PHKG2 (human)
  residual activity: 117%
TAOK2 (human)
  residual activity: 96%
CLK4 (human)
  residual activity: 86.3%
PRKD3 (human)
  residual activity: 94.3%
PDPK1 (human)
  residual activity: 98.3%
ULK3 (human)
  residual activity: 94.6%
CSNK1A1 (human)
  residual activity: 95.6%
MYO3B (human)
  residual activity: 97.8%
STK38 (human)
  residual activity: 97.4%
RPS6KB2 (human)
  residual activity: 84.5%

## O=C(O)c1ccc2c3c1cccc3c(=O)n1c3ccccc3nc21
EGFR (human)
  residual activity: 96.5%
[1]
  residual activity: 22.8%
CAMK2B (human)
  residual activity: 92.6%
TGFBR2 (human)
  residual activity: 133%
RPS6KB1 (human)
  residual activity: 95.9%
KDR (human)
  residual activity: 101%
EPHA6 (human)
  residual activity: 105%
CHEK1 (human)
  residual activity: 101%
DYRK3 (human)
  residual activity: 92.3%
STK16 (human)
  residual activity: 106%
PTK2 (human)
  residual activity: 97.5%
TLK2 (human)
  residual activity: 91.2%
LCK (human)
  residual activity: 101%
MARK1 (human)
  residual activity: 79.5%
KIT (human)
  residual activity: 93.5%
CDK3 CCNE1 (human)
  residual activity: 97.9%
PRKG1 (human)
  residual activity: 94% and 95.1%
PRKCA (human)
  residual activity: 101%
RET (human)
  residual activity: 96.8%
MKNK2 (human)
  residual activity: 57.2%
BRAF (human)
  residual activity: 95.1%
[2]
  residual activity: 102%
MAPK14 (human)
  residual activity: 99%
[3]
  residual activity: 98.4%
MAPKAPK5 (human)
  residual activity: 96%
EPHB2 (human)
  residual activity: 104%
DYRK1A (human)
  residual activity: 55.5%
PRKACG (human)
  residual activity: 127%
PAK6 (human)
  residual activity: 103%
CSNK2A1 (human)
  residual activity: 28.3%
YES1 (human)
  residual activity: 96.6%
PHKG2 (human)
  residual activity: 94.7%
TAOK2 (human)
  residual activity: 95.2%
CLK4 (human)
  residual activity: 82.8%
PRKD3 (human)
  residual activity: 82.2%
PDPK1 (human)
  residual activity: 108%
ULK3 (human)
  residual activity: 79.8%
CSNK1A1 (human)
  residual activity: 97.6%
MYO3B (human)
  residual activity: 96.7%
STK38 (human)
  residual activity: 97.5%
RPS6KB2 (human)
  residual activity: 98%

## FC(F)(F)c1ccc(/C=C/c2nc(COc3ccc(CCCCn4ccnn4)cc3)co2)cc1
EGFR (human)
  residual activity: 97.7%
[1]
  residual activity: 99.1%
CAMK2B (human)
  residual activity: 99.3%
TGFBR2 (human)
  residual activity: 103%
RPS6KB1 (human)
  residual activity: 105%
KDR (human)
  residual activity: 106%
EPHA6 (human)
  residual activity: 99.3%
CHEK1 (human)
  residual activity: 108%
DYRK3 (human)
  residual activity: 109%
STK16 (human)
  residual activity: 104%
PTK2 (human)
  residual activity: 101%
TLK2 (human)
  residual activity: 98.6%
LCK (human)
  residual activity: 92.1%
MARK1 (human)
  residual activity: 102%
KIT (human)
  residual activity: 98.8%
CDK3 CCNE1 (human)
  residual activity: 91%
PRKG1 (human)
  residual activity: 75.9% and 98.1%
PRKCA (human)
  residual activity: 111%
RET (human)
  residual activity: 101%
MKNK2 (human)
  residual activity: 101%
BRAF (human)
  residual activity: 94.3%
[2]
  residual activity: 102%
MAPK14 (human)
  residual activity: 103%
[3]
  residual activity: 103%
MAPKAPK5 (human)
  residual activity: 101%
EPHB2 (human)
  residual activity: 98.3%
DYRK1A (human)
  residual activity: 105%
PRKACG (human)
  residual activity: 105%
PAK6 (human)
  residual activity: 100%
CSNK2A1 (human)
  residual activity: 97.5%
YES1 (human)
  residual activity: 85%
PHKG2 (human)
  residual activity: 93.5%
TAOK2 (human)
  residual activity: 105%
CLK4 (human)
  residual activity: 101%
PRKD3 (human)
  residual activity: 93.3%
PDPK1 (human)
  residual activity: 104%
ULK3 (human)
  residual activity: 99.5%
CSNK1A1 (human)
  residual activity: 98.4%
MYO3B (human)
  residual activity: 93.7%
STK38 (human)
  residual activity: 102%
RPS6KB2 (human)
  residual activity: 103%
